{"source": "patent US9358224B2", "about": "“Pharmaceutical formulation comprising a phosphodiesterase inhibitor” (CHIESI FARMACEUTICI S.p.A., priority 2011, dated 2016)", "experiment": "Chemical stability study of the pMDI formulation at 25° C./60% RH", "format": "physicochemical", "conditions": "1 and 3 months at 25° C./60% RH", "description": "Physical and chemical stability of the formulation reported in table 1 has been assessed in a stability study at 1 and 3 months at 25° C./60% relative humidity (RH).\nChemical stability and performances data of the formulation are reported in Table 2, wherein “mean delivered dose intra-can” means the mean delivered dose of ten actuations on the same can (3 actuations at the beginning, 4 actuations in the middle and 3 actuations at the end of the life of the can)."}
{"smiles": "CS(=O)(=O)Nc1ccc(C(=O)OC(Cc2c(Cl)c[n+]([O-])cc2Cl)c2ccc(OC(F)F)c(OCC3CC3)c2)cc1OCC1CC1", "note": "(single isomer, unassigned; (-)) [Compound C2, (−)-3-Cyclopropylmethoxy-4-methanesulfonylamino-benzoic acid 1-(3-cyclopropylmethoxy-4-difluoromethoxy-phenyl)-2-(3,5-dichloro-1-oxy-pyridin-4-yl)-ethyl ester]", "values": [{"measurement": "chemical stability of C2 in the formulation (in words)", "value": "no degradation during stability"}]}
